Data as given in patent US12129475B2, “Glycoalkaloid metabolism enyzymes (GAMES) and uses thereof” (priority 2017, dated 2024).

Legend:
[1] = tested on: tomato GAME25; assay: In vitro assay of recombinant tomato GAME25 (Sf9 microsomes, NAD+); format: biochemical, Solanum lycopersicum; conditions: 100 μM substrate, NAD+ 150 μM, pH 7.4, 37° C., 4 hrs; LC-MS
Method: (§1) For enzyme assay experiments, an additional MS-MS analysis with a collision energy ramp from 20 to 50 eV was performed to identify the structures of the enzymatic reaction products. The solanid-4-en-3-one product was identified based on the comparison of its retention time and MS-MS spectrum to those measured for its corresponding standard. Another three products (tomatid-4-en-3-one, solasod-4-en-3-one and diosgen-4-en-3-one) were putatively assigned as follows: first, elemental composition based on accurate masses and the isotopic pattern was calculated using the MassLynx software. Then the MS-MS fragmentation pattern was analyzed, and the fragments were assigned applying the fragmentation rules for steroid-based compounds.
(§2) Each expression vector construct was co-transfected with the ProGreen GFP linearized baculovirus DNA (AB vector) to generate the recombinant viruses in Spodoptera frugiperda (Sf9) insect cells. Infection efficiency was monitored by fluorescence of recombinant GFP viruses infected cells. Sf9 cells were grown in ESF921, protein free culture medium (Expression Systems). Three days post-infection cells were collected and washed twice in PBS. Microsomal fractions were isolated by suspending the cell pellet in 20 mM potassium phosphate buffer pH 7.25, 20% (v/v) glycerol, 1 mM EDTA and 1 mM DTT. The resuspended cells were sonicated, and the cell debris was removed by centrifugation at 10,000×g for 15 min. The supernatant was further centrifuged at 100,000×g for 60 min. The pellet containing the microsomal fractions was homogenized in lysis buffer. GAME25 was expressed with a myc-tag at the C-terminus. The isolated microsomal fractions were analyzed by SDS-PAGE and immune-blot with c-myc antibodies (A2S Technologies Ltd.).
(§3) The steroidal alkaloid aglycones dehydrotomatidine, solanidine and solasodine as well as their glycosylated forms (i.e. SGAs) α-tomatine, α-solanine, α-chaconine and α-solamargine were used as substrates for GAME25 enzyme assays. In vitro assays for the tomato and potato recombinant GAME25 enzymes were performed as follows: Briefly, microsomal fractions of Sf9 cells expressing tomato or potato GAME25 proteins (0.2 mg total protein was used per reaction) were separately incubated in sodium phosphate buffer (pH 7.4) with 100 μM of each individual substrate (details are mentioned above), DTT (5 mM) and NAD^+ (150 μM) at 37° C. for 4 hrs. The reactions were stopped by addition of 300 μl of 80% methanol and 0.1% formic acid, followed by brief vortex and sonication for 15 min. Finally, the extracts were centrifuged for 15 min at 14,000×g, filtered through 0.22 μm filters, and analyzed by LC-MS (see Plant extracts preparation and targeted profiling of steroidal metabolites section above). Sf9 cells (without the baculovirus vector) microsomes were used in control enzyme reactions.

[2] = tested on: potato GAME25; assay: In vitro assay of recombinant potato GAME25 (Sf9 microsomes, NAD+); format: biochemical, Solanum tuberosum; conditions: 100 μM substrate, NAD+ 150 μM, pH 7.4, 37° C., 4 hrs; LC-MS
Method: as §1, §2, §3

[3] = tested on: plant cells; conditions: cited from earlier work
[4] = tested on: SlGAME31; assay: Enzymatic activity assay of recombinant SlGAME31 (hydroxylation of SA/SGAs); format: biochemical, Solanum lycopersicum; conditions: full reaction: ketoglutaric acid, ascorbic acid, FeSO4, 20 μM substrate, 30° C., 1 h
Method: (§4) GAME31 was amplified from cDNA (SEQ ID NO: 17) and cloned into pET28 vector by restriction free (RF) cloning as described previously (Unger et al., 2010, J Struct Biol. 172:34-44).
(§5) The resulting plasmids were verified by sequencing and transformed to E. coli BL21 DE3. For isolation of the GAME31-His tagged enzymes, fresh overnight cultures were diluted 1:100 in 1000 ml of LB medium (Formedium) with 50 μg/ml kanamycin and incubated at 37° C. and 250 rpm until an A600 nm of 0.5 was reached. Subsequently, for induction of expression of the recombinant proteins, IPTG was added to a final concentration of […] and the incubation was continued overnight at 16° C. and 250 rpm. Then cells were harvested by centrifugation at 10,000×g and bacteria were lysed by sonication in a buffer (pH 7.4) containing 0.02 M NaH2PO4 0.02 M, 0.5 M NaCl, and SIGMAFAST protease inhibitor tablets (Sigma-Aldrich) and benzonase nuclease (Sigma-Aldrich) according to manufacturer's instructions. Lysed cultures were centrifuged, and the soluble fraction was purified by nickel affinity chromatography which was operated with an AKTA liquid chromatography system (AKTA avant, GE Healthcare) according to the manufacturer's instructions. Proteins were stored at −80° C. until further analysis.
All the SA/SGAs substrates were prepared at a concentration of 1 mg/ml, dissolved in methanol, except dehydrotomatine that was prepared in DMSO. The enzymatic activity was performed according to Kawai et al. (2014) Evolution and diversity of the 2-oxoglutarate-dependent dioxygenase superfamily in plants. Plant J. 78: 328-43. Briefly, the standard full reaction (100 μL) consisted of 10 mM L-ascorbic acid, 10 mM α-ketoglutaric acid, 500 μM FeSO4, 20 μM substrate, 50 mM potassium phosphate buffer (pH 7.5) and purified enzyme. All the components, except the enzyme, were pre-incubated for 10 min at 30° C., after which the reaction was started by addition of the enzyme. After incubation at 30° C. for 1 h, the reaction was stopped by freezing in liquid nitrogen Finally, the reaction was mixed with 300 μL methanol, extracted and analyzed by UPLC-qTOF-MS as described above.

[5] = tested on: tomato GAME25; assay: In vitro assay of purified recombinant tomato GAME25 expressed in E. coli; format: biochemical, Solanum lycopersicum; conditions: purified enzyme (5 μg), NAD+ cofactor
Method: as §1
GAME25 and GAME35 genes were cloned into pET28 vector separately and expressed in E. coli BL21 (DE3). Bacterial cells were grown in LB medium at 37° C. When cultures reached A600=0.6, protein expression was induced with 200 μM of isopropyl-1-thio-β-d-galactopyranoside (IPTG) at 15° C. for 24 h. Bacterial cells were lysed by sonication in 50 mM Tris-HCl pH 7.5, 500 mM NaCl, 1 mM PMSF and protease inhibitor cocktail (Calbiochem). An aliquot of whole cell extract was kept for further analysis. […] The whole cell extract and the eluted fractions were analyzed by SDS-PAGE staining with InstatBlue and by Western blot with HRP conjugated anti-His antibodies (Sigma). […]

[6] = tested on: GAME35; assay: GAME35 enzyme assay; format: biochemical, tomato; conditions: 150 μM substrate, NADH or NADPH, 30° C., 3 hrs
Method: GAME25 and GAME35 genes were cloned into pET28 vector separately and expressed in E. coli BL21 (DE3). Bacterial cells were grown in LB medium at 37° C. When cultures reached A600=0.6, protein expression was induced with 200 μM of isopropyl-1-thio-β-d-galactopyranoside (IPTG) at 15° C. for 24 h. Bacterial cells were lysed by sonication in 50 mM Tris-HCl pH 7.5, 500 mM NaCl, 1 mM PMSF and protease inhibitor cocktail (Calbiochem). An aliquot of whole cell extract was kept for further analysis. Soluble protein was purified using Ni-NTA agarose beads (Adar Biotech) and eluted with 500 mM imidazole in buffer containing 50 mM NaH2PO4 pH-7.5 and 300 mM NaCl. The whole cell extract and the eluted fractions were analyzed by SDS-PAGE staining with InstatBlue and by Western blot with HRP conjugated anti-His antibodies (Sigma).
Purified GAME35 protein (5 μg) was incubated with solanid-4-en-3-one substrate (150 μM), DTT (1 mM), NADH or NADPH (500 μM) in sodium phosphate buffer (pH 7.4) at 30° C. for 3 hrs. The reactions were stopped by addition of 250 μl of 80% methanol and 0.1% formic acid, and followed by brief vortex and sonication for 15 min. Finally, the extracts were centrifuged for 10 min at 13,000×g and filtered through 0.22 μm filters, and analyzed by LC-MS, as described in the section above (plant extracts preparation and targeted profiling of steroidal metabolites). […]

[7] = tested on: SmGAME31; assay: Enzymatic activity assay of recombinant SmGAME31 (hydroxylation of SA/SGAs); format: biochemical, Solanum melongena; conditions: full reaction, 20 μM substrate, 30° C., 1 h
Method: as §4
as §5, with “Lysed cultures were centrifuged, and the soluble fraction was purified by nickel affinity chromatography which was operated with an AKTA liquid chromatography system (AKTA avant, GE Healthcare) according to the manufacturer's instructions. Proteins were stored at −80° C. until further analysis.” left out
All the SA/SGAs substrates were prepared at a concentration of 1 mg/ml, dissolved in methanol, except dehydrotomatine that was prepared in DMSO. […] After incubation at 30° C. for 1 h, the reaction was stopped by freezing in liquid nitrogen Finally, the reaction was mixed with 300 μL methanol, extracted and analyzed by UPLC-qTOF-MS as described above.

| Compound | activity with substrate / product formed [1] | activity with substrate / product formed [2] | further results |
| --- | --- | --- | --- |
| CC(C)CCC[C@@H](C)[C@H]1CC[C@H]2[C@@H]3CC=C4C[C@@H](O)CC[C@]4(C)[C@H]3CC[C@]12C [cholesterol] | not reactive | not reactive | – |
| C[C@H]1CC[C@]2(NC1)O[C@H]1C[C@H]3[C@@H]4CC=C5C[C@@H](O)CC[C@]5(C)[C@H]4CC[C@]3(C)[C@H]1[C@@H]2C [dehydrotomatidine] | tomatid-4-en-3-one | tomatid-4-en-3-one | toxicity to plant cells [3]: highly toxic |
| C[C@H]1CC[C@]2(NC1)O[C@H]1C[C@H]3[C@@H]4CC=C5C[C@@H](O[C@@H]6O[C@H](CO)[C@H](O[C@@H]7O[C@H](CO)[C@@H](O)[C@H](O[C@@H]8OC[C@@H](O)[C@H](O)[C@H]8O)[C@H]7O[C@@H]7O[C@H](CO)[C@@H](O)[C@H](O)[C@H]7O)[C@H](O)[C@H]6O)CC[C@]5(C)[C@H]4CC[C@]3(C)[C@H]1[C@@H]2C [dehydrotomatine] | no activity | no activity | hydroxylation of substrate [4]: did perform hydroxylation |
| C[C@@H]1CC[C@@]2(OC1)O[C@H]1C[C@H]3[C@@H]4CC=C5C[C@@H](O)CC[C@]5(C)[C@H]4CC[C@]3(C)[C@H]1[C@@H]2C [diosgenin] | – | – | product formed from substrate [5]: diosgen-4-en-3-one |
| C[C@H]1CC[C@@H]2[C@@H](C)C3C(CC4C5CCC6=CC(=O)CCC6(C)C5CCC43C)N2C1 (stereo partly shown) [solanid-4-en-3-one] | – | – | activity with substrate [6]: did not react |
| C[C@H]1CC[C@@H]2[C@@H](C)[C@H]3[C@H](C[C@H]4[C@@H]5CC=C6C[C@@H](O)CC[C@]6(C)[C@H]5CC[C@]34C)N2C1 [solanidine] | solanid-4-en-3-one | solanid-4-en-3-one | product formed from substrate [5]: solanid-4-en-3-one |
| C[C@@H]1CC[C@@]2(NC1)O[C@H]1C[C@H]3[C@@H]4CC=C5C[C@@H](O)CC[C@]5(C)[C@H]4CC[C@]3(C)[C@H]1[C@@H]2C [solasodine] | solasod-4-en-3-one | solasod-4-en-3-one | – |
| C[C@H]1CC[C@]2(NC1)O[C@H]1C[C@H]3[C@@H]4CC[C@H]5C[C@@H](O)CC[C@]5(C)[C@H]4CC[C@]3(C)[C@H]1[C@@H]2C [tomatidine] | – | – | hydroxylation of substrate [4]: did not show activity; hydroxylation of substrate [7]: did not hydroxylate; toxicity to plant cells [3]: highly toxic |
| C[C@H]1CC[C@@H]2[C@@H](C)[C@H]3[C@H](C[C@H]4[C@@H]5CC=C6C[C@@H](O[C@@H]7O[C@H](CO)[C@H](O[C@@H]8O[C@@H](C)[C@H](O)[C@@H](O)[C@H]8O)[C@H](O)[C@@H]7O[C@@H]7O[C@@H](C)[C@@H](O)[C@@H](O)[C@H]7O)CC[C@]6(C)[C@H]5CC[C@]34C)N2C1 [α-chaconine] | no activity | no activity | – |
| C[C@@H]1CC[C@@]2(NC1)O[C@H]1C[C@H]3[C@@H]4CC=C5C[C@@H](O[C@@H]6O[C@H](CO)[C@@H](O[C@@H]7O[C@@H](C)[C@H](O)[C@@H](O)[C@H]7O)[C@H](O)[C@H]6O[C@@H]6O[C@@H](C)[C@H](O)[C@@H](O)[C@H]6O)CC[C@]5(C)[C@H]4CC[C@]3(C)[C@H]1[C@@H]2C [α-solamargine] | no activity | no activity | hydroxylation of substrate [4]: generating hydroxysolamargine; hydroxylation of substrate [7]: performed hydroxylation |
| C[C@H]1CC[C@@H]2[C@@H](C)[C@H]3[C@H](C[C@H]4[C@@H]5CC=C6C[C@@H](O[C@@H]7O[C@H](CO)[C@H](O)[C@H](O[C@@H]8O[C@H](CO)[C@@H](O)[C@H](O)[C@H]8O)[C@H]7O[C@@H]7O[C@@H](C)[C@H](O)[C@@H](O)[C@H]7O)CC[C@]6(C)[C@H]5CC[C@]34C)N2C1 [α-solanine] | no activity | no activity | – |
| cholestenol | not reactive | not reactive | – |
